The values below come from ChEMBL document CHEMBL2311454, “Discovery and evaluation of novel inhibitors of mycobacterium protein tyrosine phosphatase B from the 6-Hydroxy-benzofuran-5-carboxylic acid scaffold” (J Med Chem, 2013).

Each structure is given as a SMILES string. The source made the active and inactive calls. The calls are words filed in the database; no cut-off is given here. Some results are limits rather than exact numbers.

The target in assay [1] is T1, Tyrosine-protein phosphatase non-receptor type 2 (Homo sapiens, UniProt P17706).
T1 sequence (P17706 whole entry): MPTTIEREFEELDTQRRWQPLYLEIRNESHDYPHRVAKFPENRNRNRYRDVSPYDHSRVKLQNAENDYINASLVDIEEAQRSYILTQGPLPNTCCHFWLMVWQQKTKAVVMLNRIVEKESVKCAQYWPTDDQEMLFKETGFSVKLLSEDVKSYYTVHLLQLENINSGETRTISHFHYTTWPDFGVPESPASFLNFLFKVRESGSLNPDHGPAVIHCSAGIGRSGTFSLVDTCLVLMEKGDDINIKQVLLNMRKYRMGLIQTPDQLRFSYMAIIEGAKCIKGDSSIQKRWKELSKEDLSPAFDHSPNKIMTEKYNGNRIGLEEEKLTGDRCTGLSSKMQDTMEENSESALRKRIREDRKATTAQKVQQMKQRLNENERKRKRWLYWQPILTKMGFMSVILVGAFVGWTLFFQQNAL
Kind of assay: Inhibition of TCPTP (unknown origin) expressed in Escherichia coli using pNPP substrate after 5 mins by spectrophotometric analysis.

Assay [2] deals with RAW264.7. As to the kind of experiment: Inhibition of Mycobacterium tuberculosis PTPB expressed in mouse RAW264.7 macrophages assessed as induction of apoptosis after 1 hr by annexin V-FITC /propidium iodide staining-based flow cytometric analysis. Type of assay: cell-based.
Assay [3] has as its system RAW264.7. As to the kind of experiment: Inhibition of Mycobacterium tuberculosis PTPB expressed in mouse RAW264.7 macrophages assessed as decrease in Akt activity after 1 hr by Western blotting analysis. The class given is cell-based. (A western blot detects proteins with antibodies after separation by electrophoresis.)
Assay [4] relates to Mycobacterium tuberculosis. As to the kind of experiment: Inhibition of Mycobacterium tuberculosis PTPB expressed in mouse RAW264.7 macrophages assessed as restoration of IFNgamma-induced p38 activation after 1 hr by Western blotting analysis.
Assay [5] deals with Mycobacterium tuberculosis. Kind of assay: Inhibition of Mycobacterium tuberculosis PTPB expressed in mouse RAW264.7 macrophages assessed as restoration of IFNgamma-induced ERK1/2 activation after 1 hr by Western blotting analysis.
The target in assay [6] is Receptor-type tyrosine-protein phosphatase F (Homo sapiens, UniProt P10586). As to the kind of experiment: Inhibition of LAR (unknown origin) expressed in Escherichia coli using pNPP substrate after 5 mins by spectrophotometric analysis.
Chain of Receptor-type tyrosine-protein phosphatase F (P10586 whole entry): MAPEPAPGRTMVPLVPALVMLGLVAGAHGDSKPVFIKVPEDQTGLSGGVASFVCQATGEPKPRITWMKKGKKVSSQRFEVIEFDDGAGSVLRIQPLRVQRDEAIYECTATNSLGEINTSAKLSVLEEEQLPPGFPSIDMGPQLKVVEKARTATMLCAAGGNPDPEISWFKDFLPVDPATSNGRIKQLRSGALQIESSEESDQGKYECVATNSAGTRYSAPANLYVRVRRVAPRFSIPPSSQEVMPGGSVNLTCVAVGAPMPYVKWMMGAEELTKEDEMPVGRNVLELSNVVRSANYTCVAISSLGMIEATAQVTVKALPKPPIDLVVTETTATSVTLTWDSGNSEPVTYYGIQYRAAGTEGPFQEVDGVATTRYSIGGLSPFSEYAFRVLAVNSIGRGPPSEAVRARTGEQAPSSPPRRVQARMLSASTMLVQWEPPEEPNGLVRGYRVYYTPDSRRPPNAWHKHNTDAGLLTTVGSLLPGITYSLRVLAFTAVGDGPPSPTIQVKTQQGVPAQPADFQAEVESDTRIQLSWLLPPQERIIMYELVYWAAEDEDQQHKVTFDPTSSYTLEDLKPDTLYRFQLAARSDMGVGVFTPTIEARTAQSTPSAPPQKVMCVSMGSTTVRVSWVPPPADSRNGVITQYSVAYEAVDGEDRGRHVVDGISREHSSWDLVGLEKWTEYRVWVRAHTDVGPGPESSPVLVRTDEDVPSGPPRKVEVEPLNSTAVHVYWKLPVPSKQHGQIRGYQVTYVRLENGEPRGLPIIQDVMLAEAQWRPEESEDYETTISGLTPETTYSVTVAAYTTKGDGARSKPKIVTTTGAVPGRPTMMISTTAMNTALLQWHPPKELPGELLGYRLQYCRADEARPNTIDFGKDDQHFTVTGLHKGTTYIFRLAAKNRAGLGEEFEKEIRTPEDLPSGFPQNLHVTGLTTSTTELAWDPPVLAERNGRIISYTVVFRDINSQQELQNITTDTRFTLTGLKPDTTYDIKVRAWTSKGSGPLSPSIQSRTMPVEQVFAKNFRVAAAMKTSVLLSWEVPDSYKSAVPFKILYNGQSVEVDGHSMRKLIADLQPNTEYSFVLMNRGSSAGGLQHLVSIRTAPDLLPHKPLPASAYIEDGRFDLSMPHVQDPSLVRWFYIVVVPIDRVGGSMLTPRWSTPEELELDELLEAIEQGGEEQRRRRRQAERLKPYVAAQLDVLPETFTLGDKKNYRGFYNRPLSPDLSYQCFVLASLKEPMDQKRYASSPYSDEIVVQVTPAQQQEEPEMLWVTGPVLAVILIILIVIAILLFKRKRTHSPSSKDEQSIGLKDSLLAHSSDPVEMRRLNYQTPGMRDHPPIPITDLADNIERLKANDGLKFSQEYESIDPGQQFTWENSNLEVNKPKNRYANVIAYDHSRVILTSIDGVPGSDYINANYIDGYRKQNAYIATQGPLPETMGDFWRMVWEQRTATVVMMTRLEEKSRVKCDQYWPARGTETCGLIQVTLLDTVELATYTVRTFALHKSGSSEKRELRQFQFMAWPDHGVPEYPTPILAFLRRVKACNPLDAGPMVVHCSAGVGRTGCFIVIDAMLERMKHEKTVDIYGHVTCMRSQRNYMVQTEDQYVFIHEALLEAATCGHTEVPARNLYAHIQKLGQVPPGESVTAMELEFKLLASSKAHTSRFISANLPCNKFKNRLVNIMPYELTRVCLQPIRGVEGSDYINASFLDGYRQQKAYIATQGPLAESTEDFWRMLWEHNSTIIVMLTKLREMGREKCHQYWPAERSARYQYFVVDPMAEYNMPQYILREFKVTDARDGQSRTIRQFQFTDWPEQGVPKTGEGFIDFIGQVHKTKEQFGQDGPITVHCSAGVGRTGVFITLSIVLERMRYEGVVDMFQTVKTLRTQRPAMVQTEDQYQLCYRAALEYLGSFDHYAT
The subject of assay [7] is RAW264.7. As to the kind of experiment: Inhibition of Mycobacterium tuberculosis PTPB expressed in mouse RAW264.7 macrophages assessed as increase in caspase activity after 1 hr by spectrophotometric analysis. The class given is cell-based.
Assay [8] has as its system Mycobacterium tuberculosis. As to the kind of experiment: Inhibition of Mycobacterium tuberculosis PTPB expressed in mouse RAW264.7 macrophages assessed as restoration of IFNgamma-induced IL-6 production after 1 hr by ELISA. A general note: In an ELISA, binding on a coated surface is turned into a signal by an enzyme label.
Assay [9] has as its target Receptor-type tyrosine-protein phosphatase alpha (Homo sapiens, UniProt P18433). As to the kind of experiment: Inhibition of PTPalpha (unknown origin) expressed in Escherichia coli using pNPP substrate after 5 mins by spectrophotometric analysis.
The target in the next assay is T2, Laforin (Homo sapiens, UniProt O95278).
T2 sequence (O95278 whole entry): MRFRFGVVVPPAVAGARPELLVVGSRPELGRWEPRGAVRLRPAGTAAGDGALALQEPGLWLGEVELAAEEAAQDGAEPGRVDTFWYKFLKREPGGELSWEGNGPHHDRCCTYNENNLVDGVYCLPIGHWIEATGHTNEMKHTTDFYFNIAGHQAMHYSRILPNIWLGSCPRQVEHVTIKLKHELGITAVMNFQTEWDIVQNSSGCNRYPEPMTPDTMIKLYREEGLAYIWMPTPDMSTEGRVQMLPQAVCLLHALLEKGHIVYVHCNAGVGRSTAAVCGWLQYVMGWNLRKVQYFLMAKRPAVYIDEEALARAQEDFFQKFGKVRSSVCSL
Kind of assay: Inhibition of Laforin (unknown origin) expressed in Escherichia coli using pNPP substrate after 5 mins by spectrophotometric analysis.

What is called IC50 is the concentration needed to halve the response being measured. High values mean weaker potency in that assay, low ones greater potency in that assay.

Chain of Receptor-type tyrosine-protein phosphatase alpha (P18433 whole entry): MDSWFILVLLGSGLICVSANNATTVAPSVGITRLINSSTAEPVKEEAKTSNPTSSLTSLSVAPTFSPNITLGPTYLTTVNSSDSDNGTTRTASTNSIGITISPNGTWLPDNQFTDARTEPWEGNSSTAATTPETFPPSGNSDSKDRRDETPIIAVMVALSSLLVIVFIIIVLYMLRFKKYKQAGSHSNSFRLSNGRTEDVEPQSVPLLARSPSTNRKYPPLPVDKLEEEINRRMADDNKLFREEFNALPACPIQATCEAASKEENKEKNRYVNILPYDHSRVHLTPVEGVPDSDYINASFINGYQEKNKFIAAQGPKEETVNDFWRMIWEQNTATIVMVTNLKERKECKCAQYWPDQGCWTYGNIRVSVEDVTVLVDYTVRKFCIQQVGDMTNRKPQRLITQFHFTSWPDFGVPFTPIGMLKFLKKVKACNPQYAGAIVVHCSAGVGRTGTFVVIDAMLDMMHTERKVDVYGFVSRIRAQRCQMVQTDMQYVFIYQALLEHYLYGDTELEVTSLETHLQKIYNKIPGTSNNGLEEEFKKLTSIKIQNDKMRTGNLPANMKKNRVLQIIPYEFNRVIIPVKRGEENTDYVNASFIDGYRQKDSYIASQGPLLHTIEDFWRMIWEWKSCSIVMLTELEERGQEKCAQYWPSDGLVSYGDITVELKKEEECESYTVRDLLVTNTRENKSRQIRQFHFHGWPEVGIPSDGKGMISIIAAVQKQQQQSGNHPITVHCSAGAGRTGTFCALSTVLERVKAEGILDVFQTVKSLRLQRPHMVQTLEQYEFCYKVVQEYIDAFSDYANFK

On to `O=C(O)c1cc2c(C#Cc3cccc(C(F)(F)F)c3)c(-c3ccccc3)oc2cc1O`, for which the half-maximal inhibitory concentration (IC50) was 13 µM in assay [1], over 10 µM in [6] and over 10 µM in assay [9]. Further, the inhibition result in the assay with RAW264.7 [2], in the assay with RAW264.7 [3] and with RAW264.7 [7] was “Active” throughout. The inhibition entry in assay [4], in assay [5] and in assay [8] was “Dose-dependent effect” throughout.
For `O=C(O)c1cc2c(C#Cc3cc(F)cc(F)c3)c(-c3ccccc3)oc2cc1O`, the IC50 is 6.1 µM in assay [1], over 10 µM in assay [6], over 10 µM in assay [9] and over 30 µM against Laforin.
